# Data: patent publication US8202879B2, “Quinazoline derivatives having tyrosine kinase inhibitory activity” (Shionogi & Co., Ltd., priority 2005, dated 2012)
# Where two headings read alike, the source gives them in different places.
# Tests used:
# [1] = molecular target: T1, HER2 (Homo sapiens, UniProt P04626); assay: Enzyme inhibitory activity on HER2 (time resolution fluorescence, biotinylated poly-Glu-Tyr substrate); assay type: biochemical
# T1 construct: purchased Carna Biosciences, Inc; host or cells: insect cell expression system
# Method: (§1) Enzyme Inhibitory Activity of Test Compound on EGFR and HER2
# (§2) EGFR and HER2 purified from an insect cell expression system, and a biotinylated substrate (synthetic peptide of glutamic acid:tyrosine=4:1) were added to a 384-well plate with ATP added thereto, and an enzyme reaction was performed at room temperature. After completion of the enzyme reaction, an anti-phosphorylated tyrosine antibody labeled with europium and streptavidin labeled with alphycocyanine were added, and a phosphorylated tyrosine residue was quantified by a time resolution fluorescence method.
# (§3) A test compound was adjusted to 10 mM using DMSO.
# (§4) Further, using 10% DMSO solution, a 1 mM solution was prepared, and this was regarded as a maximum concentration point.
# (§5) As a dilution series, a 4-fold dilution series was prepared to a 10 stage.
# (§6) As a buffer, TBS containing 10 mM MgCl2, 5 mM MnCl2, 0.2 mM Na3VO4, and 0.1% BSA was used.
# (§7) As EGFR and HER2 enzymes, those purified from an insect cell expression system were purchased from Carna Biosciences, Inc.
# HER2 kinase was adjusted to 1000 ng/ml using a buffer.
# (§8) As a substrate, biotinylated poly-Glu-Tyr (4:1, manufactured by CISbio) was used. A concentration was adjusted to 3.125 μg/ml using the above buffer.
# An ATP concentration on study of the HER2 enzyme was adjusted to 290 μM.
# (§9) For preparing a detection reagent, TBS containing 30 mM EDTA, 0.8M KF and 0.1% BSA was used.
# (§10) An anti-phosphorylated tyrosine antibody labeled with europium, PT-66K (CISbio) was adjusted to 195 ng/ml, and streptavidin labeled with alphycocyanine, SA-XL (CISbio) was adjusted to 5 μg/ml.
# (§11) As an assay plate, a 384-well plate was used. Per one well, 1.1 μl of a test compound, 4 μl of a substrate solution, and 4 μl of an enzyme solution were added, and 2 μl of an ATP solution was added to initiate an enzyme reaction. The enzyme reaction was performed at room temperature for 60 minutes, and 10 μl of a detection reagent was added to complete the reaction. One hour after completion of the reaction, time resolution fluorescent measurement was performed.
# [2] = molecular target: T2, EGFR (Homo sapiens, UniProt P00533); assay: Enzyme inhibitory activity on EGFR (time resolution fluorescence, biotinylated poly-Glu-Tyr substrate); assay type: biochemical
# T2 construct: purchased Carna Biosciences, Inc; host or cells: insect cell expression system
# Method: as §1, §2, §3, §4, §5, §6, §7
# An EGFR enzyme solution was adjusted to 250 ng/ml using a buffer.
# as §8
# An ATP concentration on study of the EGFR enzyme was adjusted to 125 μM using the buffer.
# as §9, §10, §11
# [3] = system: BT-474; assay: In vitro cell proliferation inhibition, WST assay; assay type: cell-based, human; conditions: BT-474 cells, cultured for 3 days, read-out: BT-474 (nM) proliferation inhibitory activity (IC50 value)
# Method: Test of In Vitro Cell Proliferation Inhibition of Test Compound
# As a human-derived cancer cell strain, BT-474 was used. Cells were all cultured in a 37° C., 5% CO2 incubator in a medium in which 10% bovine fetal serum (ICN) and 50 units ml penicillin/60 μg/ml streptomycin solution (GIBCO) were added to Dulbecco's Modified Essential Medium (DMEM, Nacalai Tesque, Inc).
# [4] = enzyme reaction at room temperature for 60 minutes
# [5] = HER2 purified from insect cell expression system, ATP solution 290 μM, room temperature, 60 minutes
# [6] = EGFR purified from insect cell expression system, ATP solution 125 μM, room temperature, 60 minutes
# T2 sequence (P00533 25-1210): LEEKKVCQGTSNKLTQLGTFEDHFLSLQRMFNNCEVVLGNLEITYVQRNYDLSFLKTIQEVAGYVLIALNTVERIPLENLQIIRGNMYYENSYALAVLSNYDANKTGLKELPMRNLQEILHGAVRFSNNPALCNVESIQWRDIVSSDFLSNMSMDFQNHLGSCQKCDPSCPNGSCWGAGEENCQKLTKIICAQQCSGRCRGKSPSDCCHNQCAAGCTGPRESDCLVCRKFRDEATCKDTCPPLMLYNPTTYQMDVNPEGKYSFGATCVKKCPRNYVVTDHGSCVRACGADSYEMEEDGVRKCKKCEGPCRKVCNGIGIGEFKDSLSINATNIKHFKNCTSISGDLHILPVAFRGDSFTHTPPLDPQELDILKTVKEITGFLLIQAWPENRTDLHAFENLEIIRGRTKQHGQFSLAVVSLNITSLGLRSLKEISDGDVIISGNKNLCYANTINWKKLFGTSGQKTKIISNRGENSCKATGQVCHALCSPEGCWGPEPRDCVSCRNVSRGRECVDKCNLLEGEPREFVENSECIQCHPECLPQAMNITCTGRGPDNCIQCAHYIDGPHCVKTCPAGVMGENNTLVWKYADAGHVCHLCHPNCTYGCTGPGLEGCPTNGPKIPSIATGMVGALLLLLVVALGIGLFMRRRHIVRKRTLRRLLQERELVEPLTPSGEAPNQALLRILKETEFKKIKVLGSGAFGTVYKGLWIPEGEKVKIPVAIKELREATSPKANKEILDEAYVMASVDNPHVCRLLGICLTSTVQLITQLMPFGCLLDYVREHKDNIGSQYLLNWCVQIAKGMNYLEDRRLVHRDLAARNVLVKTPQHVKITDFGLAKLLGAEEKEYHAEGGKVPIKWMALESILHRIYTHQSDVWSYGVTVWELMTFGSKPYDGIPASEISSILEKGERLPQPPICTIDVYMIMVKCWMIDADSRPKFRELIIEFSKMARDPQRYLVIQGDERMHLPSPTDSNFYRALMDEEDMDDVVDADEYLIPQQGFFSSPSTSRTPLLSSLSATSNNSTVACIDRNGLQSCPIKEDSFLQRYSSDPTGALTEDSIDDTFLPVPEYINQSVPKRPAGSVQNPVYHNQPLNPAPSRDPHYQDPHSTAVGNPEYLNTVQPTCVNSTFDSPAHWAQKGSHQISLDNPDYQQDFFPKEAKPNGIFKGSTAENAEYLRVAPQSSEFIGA
# T1 sequence (P04626 23-1255): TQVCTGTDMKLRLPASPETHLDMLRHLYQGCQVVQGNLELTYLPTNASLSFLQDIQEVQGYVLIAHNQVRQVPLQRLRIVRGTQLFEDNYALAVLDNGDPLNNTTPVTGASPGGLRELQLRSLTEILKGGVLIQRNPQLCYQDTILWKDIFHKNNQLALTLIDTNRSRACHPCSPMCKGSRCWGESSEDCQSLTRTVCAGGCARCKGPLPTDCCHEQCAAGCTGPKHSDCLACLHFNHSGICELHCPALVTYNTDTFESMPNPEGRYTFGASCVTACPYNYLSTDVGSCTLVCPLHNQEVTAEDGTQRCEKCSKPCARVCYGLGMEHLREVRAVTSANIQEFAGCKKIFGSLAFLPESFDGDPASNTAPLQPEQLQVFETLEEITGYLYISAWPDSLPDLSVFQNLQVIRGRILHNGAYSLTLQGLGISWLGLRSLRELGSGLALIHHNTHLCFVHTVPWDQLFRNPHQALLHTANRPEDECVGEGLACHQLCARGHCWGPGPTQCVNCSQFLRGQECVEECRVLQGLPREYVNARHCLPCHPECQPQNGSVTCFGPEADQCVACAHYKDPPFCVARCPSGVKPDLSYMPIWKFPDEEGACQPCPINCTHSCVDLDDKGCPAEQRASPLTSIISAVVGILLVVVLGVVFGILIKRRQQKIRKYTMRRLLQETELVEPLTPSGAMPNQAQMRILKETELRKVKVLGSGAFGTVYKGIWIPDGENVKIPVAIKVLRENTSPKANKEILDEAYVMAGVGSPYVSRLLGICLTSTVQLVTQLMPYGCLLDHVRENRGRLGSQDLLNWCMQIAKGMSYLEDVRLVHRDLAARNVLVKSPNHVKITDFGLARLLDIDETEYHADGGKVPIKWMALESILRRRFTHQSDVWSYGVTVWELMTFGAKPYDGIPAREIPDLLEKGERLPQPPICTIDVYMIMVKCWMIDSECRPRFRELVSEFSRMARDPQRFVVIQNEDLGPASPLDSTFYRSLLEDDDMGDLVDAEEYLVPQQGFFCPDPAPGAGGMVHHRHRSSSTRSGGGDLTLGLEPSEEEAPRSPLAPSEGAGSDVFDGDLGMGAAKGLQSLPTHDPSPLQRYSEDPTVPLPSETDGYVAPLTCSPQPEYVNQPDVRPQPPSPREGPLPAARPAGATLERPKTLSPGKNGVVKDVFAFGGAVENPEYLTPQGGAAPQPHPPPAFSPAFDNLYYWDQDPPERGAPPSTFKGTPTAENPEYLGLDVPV
Compound,"IC50 [1, 4] [nM]","IC50 [2, 4] [nM]","IC50 ([3]; Homo sapiens, BT-474, 72 h) [nM]","IC50 [1, 5] [nM]","IC50 [2, 6] [nM]",IC50 [3] [nM]
CC#C/C(=N\OC[C@@H]1C[C@H](O)CN1)c1ccc2ncnc(Nc3ccc(OCc4ccccn4)c(Cl)c3)c2c1 [VIII-152],4.3,2.4,22,–,–,–
CC#C/C(=N\OCCNCCNS(C)(=O)=O)c1ccc2ncnc(Nc3ccc4c(cnn4Cc4cccc(F)c4)c3)c2c1 [VIII-185],12.5,6.8,12,–,–,–
CC#C/C(=N\OC[C@H]1CN(CCO)CCN1)c1ccc2ncnc(Nc3ccc(OCc4ccccn4)c(Cl)c3)c2c1 [VIII-174],28,25,14,–,–,–
CC#C/C(=N\OCCNC)c1ccc2ncnc(Nc3ccc(OCc4cccnc4)c(Cl)c3)c2c1 [VIII-216],7,22,32,–,–,–
CC#C/C(=N\OC[C@@H](COC)NC)c1ccc2ncnc(Nc3ccc(S(=O)(=O)c4ccccc4)cc3)c2c1 [VIII-205],13,17,31,–,–,–
CC#CC(=NOCC1NC(=O)OC1C)c1ccc2ncnc(Nc3ccc(OCc4cccc(F)c4)c(Cl)c3)c2c1 (stereo not drawn) [VIII-77],–,–,–,246,217,11
CC#C/C(=N\OCCN1CCN(C)CC1)c1ccc2ncnc(Nc3ccc(OCc4cccc(F)c4)c(Cl)c3)c2c1 [VIII-96],–,–,–,20,20,30
CC#C/C(=N\OC[C@H]1CN(C)CCN1)c1ccc2ncnc(Nc3ccc(OCc4ccccn4)c(Cl)c3)c2c1 [VIII-176],26,23,26,–,–,–
O=S1(=O)CCN(CCON=C(c2ccccc2)c2ccc3ncnc(Nc4ccc(OCc5cccc(F)c5)c(Cl)c4)c3c2)CC1 [VIII-12],–,–,69,227,209,–
CC#C/C(=N\OCC(=O)NCCO)c1ccc2ncnc(Nc3ccc(OCc4cccc(F)c4)c(Cl)c3)c2c1 [VIII-224],118,122,1.2,–,–,–
CC#C/C(=N\OCC1COCCN1)c1ccc2ncnc(Nc3ccc(COc4cccc(F)c4)c(Cl)c3)c2c1 (stereo not drawn) [VIII-221],168,143,–,–,–,15
CC#C/C(=N\O[C@@H]1CN[C@H](CO)C1)c1ccc2ncnc(Nc3ccc(OCc4ccccn4)c(Cl)c3)c2c1 [VIII-155],8,10,28,–,–,–
CC#C/C(=N\OC[C@@H]1CCCN1CC(=O)O)c1ccc2ncnc(Nc3ccc(OCc4cccc(F)c4)c(Cl)c3)c2c1 [VIII-89],–,–,25,24,27,–
CC#C/C(=N\OC[C@@H]1COCCN1CC#N)c1ccc2ncnc(Nc3ccc(OCc4cccc(F)c4)c(Cl)c3)c2c1 [VIII-104],–,–,–,202,238,60
Fc1cccc(COc2ccc(Nc3ncnc4ccc(/C=N/OCCN5CCCC5)cc34)cc2Cl)c1 [Compound V-6],–,–,110,3.6,6.5,–
CC#CC(=NOCCNC(=NC#N)NC)c1ccc2ncnc(Nc3ccc(OCc4cccc(F)c4)c(Cl)c3)c2c1 [VIII-58],–,–,37,236,207,–
CC#C/C(=N\OCCN1CCOCC1)c1ccc2ncnc(Nc3ccc4c(cnn4Cc4cccc(F)c4)c3)c2c1 [VIII-195],43,45,29,–,–,–
CC#C/C(=N\OC[C@@H]1CNCC(=O)N1)c1ccc2ncnc(Nc3ccc(OCc4ccccn4)c(Cl)c3)c2c1 [VIII-179],5,4.6,48,–,–,–
CC#C/C(=N\OC[C@H]1CCCN1)c1ccc2ncnc(Nc3ccc(OCc4ccccn4)c(Cl)c3)c2c1 [VIII-157],4,4.1,25,–,–,–

Compound,"IC50 [1, 4] [nM]","IC50 [2, 4] [nM]","IC50 ([3]; Homo sapiens, BT-474, 72 h) [nM]","IC50 [1, 5] [nM]","IC50 [2, 6] [nM]",IC50 [3] [nM]
CC#C/C(=N\OCCNC)c1ccc2ncnc(Nc3ccc(S(=O)(=O)c4ccccc4)cc3)c2c1 [VIII-214],3.3,4.5,25,–,–,–
CC#C/C(=N\OCCNCCO)c1ccc2ncnc(Nc3ccc(OCc4ccccn4)c(Cl)c3)c2c1 [VIII-143],3.6,3.5,24,–,–,–
CC#CC(=NOCCNCC)c1ccc2ncnc(Nc3ccc(OCc4cccc(F)c4)c(Cl)c3)c2c1 [VIII-35],–,–,24,25,11,–
CC#C/C(=N\OCCN(CC)CCOC)c1ccc2ncnc(Nc3ccc(OCc4cccc(F)c4)c(Cl)c3)c2c1 [VIII-65],–,–,–,98,97,30
CC#C/C(=N\OC[C@H]1CCCN1C)c1ccc2ncnc(Nc3ccc(OCc4cccc(F)c4)c(Cl)c3)c2c1 [VIII-91],–,–,–,83,74,24
CC#C/C(=N\OCCN1CCNC(=O)C1)c1ccc2ncnc(Nc3ccc(OCc4cccc(F)c4)c(Cl)c3)c2c1 [VIII-94],–,–,26,150,213,–
CC#CC(=NOCC1CNCCN1)c1ccc2ncnc(Nc3ccc(OCc4ccccn4)c(Cl)c3)c2c1 (stereo not drawn) [VIII-170],5.6,5,19,–,–,–
COCC#C/C(=N\OCCN1CCCC1)c1ccc2ncnc(Nc3ccc(OCc4cccc(F)c4)c(Cl)c3)c2c1 [VIII-124],38,40,14,–,–,–
CC#C/C(=N\OC[C@@H]1C[C@@H](O)CN1)c1ccc2ncnc(Nc3ccc(OCc4cccc(F)c4)c(Cl)c3)c2c1 [VIII-81],–,–,8,17.7,9.8,–
CC#C/C(=N\OC[C@H]1CN(CCO)CCN1)c1ccc2ncnc(Nc3ccc(OCc4cccc(F)c4)c(Cl)c3)c2c1 [VIII-112],–,–,–,13,11,8
CC#C/C(=N\OCCN1CC[C@@H](OC(N)=O)C1)c1ccc2ncnc(Nc3ccc(OCc4ccccn4)c(Cl)c3)c2c1 [VIII-151],19,20,47,–,–,–
COCC#C/C(=N\OC[C@@H]1COCCN1)c1ccc2ncnc(Nc3ccc(S(=O)(=O)c4ccccc4)cc3)c2c1 [VIII-209],30,38,19,–,–,–
CC#C/C(=N\OCCNC1CC1)c1ccc2ncnc(Nc3ccc(OCc4ccccn4)c(Cl)c3)c2c1 [VIII-136],21,21,53,–,–,–
CC#C/C(=N\OC[C@H]1CNC[C@@H](C)O1)c1ccc2ncnc(Nc3ccc(OCc4cccc(F)c4)c(Cl)c3)c2c1 [VIII-116],–,–,–,25,37,50
CC#C/C(=N\OCCNC[C@H](C)CO)c1ccc2ncnc(Nc3ccc(OCc4ccccn4)c(Cl)c3)c2c1 [VIII-140],4.3,5.5,30,–,–,–
CC#C/C(=N\OCC(N)=O)c1ccc2ncnc(Nc3ccc(OCc4cccc(F)c4)c(Cl)c3)c2c1 [VIII-223],217,253,6,–,–,–
CC#C/C(=N\OC[C@H]1CNCC(=O)N1)c1ccc2ncnc(Nc3ccc(OCc4ccccn4)c(Cl)c3)c2c1 [VIII-171],11.7,9.9,52,–,–,–
CC#C/C(=N\OC[C@H]1CN(C)CCN1)c1ccc2ncnc(Nc3ccc(OCc4cccc(F)c4)c(Cl)c3)c2c1 [VIII-113],–,–,13,12,9.7,–
CC#CC(=NOCCNCC(C)CO)c1ccc2ncnc(Nc3ccc(OCc4cccc(F)c4)c(Cl)c3)c2c1 (stereo not drawn) [VIII-62],–,–,–,22,22,12
